Test results published in patent EP1932513A2, “Compounds for improving the visual appearance of the skin” (Henkel AG & Co. KGaA, priority 2006, dated 2008).

Key:
Dermale Fibroblasten = assay: Protein carbonyls in vitro (ELISA) in UV-A irradiated and non-irradiated fibroblasts; format: cell-based, menschlich; settings: for durch UV-A-Bestrahlung induzierter Anstieg des Proteincarbonyl-Gehalts: summary in words of the fibroblast results
Description: (§1) Dermale Fibroblasten (isoliert aus menschlicher Vorhaut) wurden bei 37°C und 5 Vol.-% CO2 mit Dulbecco's Minimal Essential Medium High Glucose unter Zusatz von 1 Gew.-% Glutamax, 1 Gew.-% Penicillin/Streptomycin und 10 Gew.-% fetalem Kälberserum kultiviert. Zur UV-A Bestrahlung mittels eines Teilkörperbestrahlungshimmels Typ Sellamed 2000 (Dr. Sellmeier; Bestrahlungsspektrum: 340-400 nm, Maximum: 360-380 nm) wurden die Zellen in Petrischalen ausplattiert (ca. 3,8 x 10^4 Zellen/cm^2; zuzüglich 2 Tage Wachstum, danach noch subkonfluent), das Zellmedium abgesaugt, die Zellen einmal mit PBS gewaschen und die UV-A Bestrahlung anschließend in PBS durchgeführt (Dosierung über Zeitintervall bis zu 14min bei […]). Nach UV-A Bestrahlung und Entfernung des PBS wurden die Zellen wieder mit Zellmedium versetzt und bis zur Zellernte bei 37°C, 5 Vol.-% CO2 aufbewahrt. Nach Zelltrypsinierung und -schabung erfolgte unter Zusatz von hypotonem Salzpuffer (10 mM HEPES, 24 mM KCl, 10 mM MgCl2, pH 7,5) und Anwendung der Frier-Tau-Technik die Herstellung des Zelllysats. Nicht lysierte Zellen sowie Membranen und Zellkerne wurden durch zehnminütige Zentrifugation bei 14000 rpm und 4°C abgetrennt.
(§2) Getestete Substanzen: • Natriumascorbylphosphat (0,025 mg/ml), BASF, entsprechend einem Aktivsubstanzgehalt in der Testlösung von 0,0025 Gew.-% • Hypotaurin 0,25 (mg/ml), Siber Hegner (entsprechend einem Aktivsubstanzgehalt in der Testlösung von 0,025 Gew.-%) • Kombuchka (7,5 mg/ml), Sederma (entsprechend einem Aktivsubstanzgehalt in der Testlösung von 0,02 - 0,053 Gew.-%) • Glistin (0,5 mg/ml), Exsymol (entsprechend 4,5 - 5,5' 10^-4 Gew.-% Glutamylamidoethylindol in der Testlösung) • Gingkoselect Phytosome (0,15 mg/ml), Indena (entsprechend 0,9 - 1,8 · 10^-5 Gew.-% […]-Aktivsubstanz in der Testlösung), wird vom Hersteller als Antioxidans ausgelobt.
Fibroblasten wurden für 16 Stunden mit Antioxidantien-haltigem Medium versetzt. Nach UV-A Bestrahlung in PBS wurden die Fibroblasten anschließend wieder für 3 Stunden mit Antioxidantien-haltigem Medium versetzt und lysiert. Die Detektion der Proteincarbonyle erfolgte per ELISA Technik nach Buss et al. mit Veränderungen nach Sitte et al.. Das Zelllysat wurde mit Dinitrophenylhydrazin versetzt, und die gebildeten Hydrazone wurden mit Hilfe des primären Antikörpers Anti-Dinitrophenyl-Rabbit-IgG detektiert. Als sekundärer Antikörper wurde der Anti-Rabbit-IgG-Antikörper (Peroxidase-konjugiert) verwendet und die Menge des gebundenen, sekundären Antikörpers nach Entwicklung mit o-Phenylendiamin und Wasserstoffperoxid detektiert.

Proteasom = assay: Proteasome activity (suc-LLVY-MCA hydrolysis) in lysate of treated fibroblasts; format: cell-based, menschlich
Description: as §1, §2
Die Behandlung der Fibroblasten mit Antioxidantien erfolgte wie unter 2.3.3. Das Zelllysat wurde mit einem Puffer, der Tris-HCl (pH=7,8 bei 37°C), KCI, Mg-Acetat, MgCl2 und Dithiothreitol enthält, versetzt. Nach Zugabe von 10µl einer 2mM Stammlösung von suc-LLVY-MCA (N-Succinyl-Leucin-Leucin-Valin-Tyrosin-4-Methyl-cumaryl-7-amid) erfolgte eine 30-minütige Inkubation bei 37°C. Anschließend wurde die Fluoreszenz des Hydrolyseprodukts MCA (4-Methyl-cumaryl-7-amid) am Fluorimeter bestimmt (Anregungswellenlänge: 390 nm, Detektionswellenlänge: 460nm) und die MCA-Konzentration unter Verwendung einer Standardreihe bestimmt.

[1] = bestrahlt (UV-A), unbehandelt bestrahlt = 171,43, test concentrations: Natriumascorbylphosphat 0,025 mg/ml, Hypotaurin 0,25 mg/ml, Kombuchka 7,5 mg/ml, Glistin 0,5 mg/ml, Gingkoselect Phytosome 0,15 mg/ml
[2] = bestrahlt (UV-A), unbehandelt bestrahlt = 23,41, unbehandelt und unbestrahlt = 100 %
[3] = unbestrahlt, unbehandelt = 100 %

SMILES	Proteincarbonyl-Gehalt [%, relativ zum unbehandelten und unbestrahlten Zustand] (Dermale Fibroblasten; [1])	durch UV-A-Bestrahlung induzierter Anstieg des Proteincarbonyl-Gehalts (Dermale Fibroblasten)	Proteincarbonyl-Gehalt [%, relativ zum unbehandelten und unbestrahlten Zustand] (Dermale Fibroblasten; unbestrahlt, unbehandelt = 100)	Proteasomaktivität MW (%) (Proteasom; [2])	Proteasomaktivität MW (%) (Proteasom; [3])
NC(CCC(=O)O)C(=O)NCCc1c[nH]c2ccccc12 (stereo not drawn) [Glistin, Glutamylamidoethylindol]	139,96%	reduzieren	112,69%	24,94%	119,32%
NCCS(=O)O [Hypotaurin]	151,3%	reduzieren	128,32%	32,9%	144,37%
O=C1O[C@H]([C@@H](O)CO)C(O)=C1OP(=O)(O)O [Natriumascorbylphosphat]	124,18%	reduzieren	86,82%	33,36%	104,74%
